What was measured:
Experiment in all cases: relative viability (nuclei count vs DMSO), 5 days (fraction); higher = more cells survive
NCI-H322M = system: NCI-H322M
Method in brief: (§1)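 Dosing by pin tool came one day after lung cancer cell lines were seeded in 1536-well plates, using either one drug or a fixed anchor-drug dose plus five library-drug doses (not always all listed) in √10 steps. After 5 days, nuclei were counted on 4× images. Relative viability is treated-well nuclei count divided by vehicle-well nuclei count, and values are medians of duplicate plates.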

NCI-H1792 = system: NCI-H1792
Method in brief: as §1

PC-14 = system: PC-14
Method in brief: as §1

NCI-H1755 = system: NCI-H1755
Method in brief: as §1

LXF-289 = system: LXF-289
Method in brief: as §1

NCI-H1355 = system: NCI-H1355
Method in brief: as §1

SW 900 = system: SW 900
Method in brief: as §1

NCI-H441 = system: NCI-H441
Method in brief: as §1

NCI-H3122 = system: NCI-H3122
Method in brief: as §1

NCI-H522 = system: NCI-H522
Method in brief: as §1

RERF-LC-KJ = system: RERF-LC-KJ
Method in brief: as §1

NCI-H460 = system: NCI-H460
Method in brief: as §1

NCI-H1651 = system: NCI-H1651
Method in brief: as §1

LCLC-103H = system: LCLC-103H
Method in brief: as §1

NCI-H1915 = system: NCI-H1915
Method in brief: as §1

NCI-H727 = system: NCI-H727
Method in brief: as §1

NCI-H596 = system: NCI-H596
Method in brief: as §1

NCI-H2347 = system: NCI-H2347
Method in brief: as §1

**Q.** For `COc1cc2nccc(Oc3ccc(NC(=O)Nc4cc(C)on4)c(Cl)c3)c2cc1OC` [Tivozanib] + NC(=O)Nc1cc(-c2cccc(F)c2)sc1C(=O)N[C@H]1CCCNC1 [AZD7762] (partner 0.2 µM), which relative viability (NCI-H322M; first compound 0.005 µM) is on record?
**A.** The relative viability was 0.562.

**Q.** And the relative viability (NCI-H322M; first compound 0.01581 µM)?
**A.** Its relative viability is 0.767.

**Q.** What about the relative viability (NCI-H322M; first compound 0.05 µM) of the same molecule?
**A.** Its relative viability is 0.628.

**Q.** What about the relative viability (NCI-H322M; first compound 0.1581 µM) of the same molecule?
**A.** Its relative viability is 0.443.

**Q.** And the relative viability (NCI-H322M; first compound 0.5 µM)?
**A.** The relative viability was 0.586.

**Q.** And the relative viability (NCI-H1792; first compound 0.005 µM)?
**A.** The relative viability was 0.641.

**Q.** And the relative viability (NCI-H1792; first compound 0.01581 µM)?
**A.** Its relative viability is 0.646.

**Q.** And the relative viability (NCI-H1792; first compound 0.05 µM)?
**A.** Its relative viability is 0.509.

**Q.** And the relative viability (NCI-H1792; first compound 0.5 µM)?
**A.** Its relative viability is 0.53.

**Q.** And the relative viability (PC-14; first compound 0.005 µM)?
**A.** The relative viability was 0.333.

**Q.** What about the relative viability (PC-14; first compound 0.01581 µM) of the same molecule?
**A.** The relative viability was 0.338.

**Q.** What about the relative viability (PC-14; first compound 0.05 µM) of the same molecule?
**A.** The relative viability was 0.369.

**Q.** What about the relative viability (PC-14; first compound 0.1581 µM) of the same molecule?
**A.** The relative viability was 0.385.

**Q.** And the relative viability (PC-14; first compound 0.5 µM)?
**A.** Its relative viability is 0.375.

**Q.** And the relative viability (NCI-H1755; first compound 0.005 µM)?
**A.** The relative viability was 0.441.

**Q.** And the relative viability (NCI-H1755; first compound 0.01581 µM)?
**A.** The relative viability was 0.428.

**Q.** What about the relative viability (NCI-H1755; first compound 0.05 µM) of the same molecule?
**A.** Its relative viability is 0.444.

**Q.** What about the relative viability (NCI-H1755; first compound 0.1581 µM) of the same molecule?
**A.** Its relative viability is 0.457.

**Q.** What about the relative viability (NCI-H1755; first compound 0.5 µM) of the same molecule?
**A.** Its relative viability is 0.411.

**Q.** And the relative viability (LXF-289; first compound 0.005 µM)?
**A.** Its relative viability is 1.05.

**Q.** And the relative viability (LXF-289; first compound 0.01581 µM)?
**A.** Its relative viability is 1.03.

**Q.** What about the relative viability (LXF-289; first compound 0.05 µM) of the same molecule?
**A.** The relative viability was 1.09.

**Q.** And the relative viability (LXF-289; first compound 0.1581 µM)?
**A.** The relative viability was 1.21.

**Q.** And the relative viability (LXF-289; first compound 0.5 µM)?
**A.** Its relative viability is 1.06.

**Q.** And the relative viability (NCI-H1355; first compound 0.005 µM)?
**A.** The relative viability was 0.737.

**Q.** And the relative viability (NCI-H1355; first compound 0.01581 µM)?
**A.** The relative viability was 0.731.

**Q.** What about the relative viability (NCI-H1355; first compound 0.05 µM) of the same molecule?
**A.** Its relative viability is 0.799.

**Q.** And the relative viability (NCI-H1355; first compound 0.1581 µM)?
**A.** Its relative viability is 0.606.

**Q.** And the relative viability (NCI-H1355; first compound 0.5 µM)?
**A.** The relative viability was 0.716.

**Q.** And the relative viability (SW 900; first compound 0.005 µM)?
**A.** Its relative viability is 0.649.

**Q.** And the relative viability (SW 900; first compound 0.01581 µM)?
**A.** The relative viability was 0.636.

**Q.** And the relative viability (SW 900; first compound 0.05 µM)?
**A.** Its relative viability is 0.675.

**Q.** What about the relative viability (SW 900; first compound 0.5 µM) of the same molecule?
**A.** The relative viability was 0.547.

**Q.** What about the relative viability (NCI-H441; first compound 0.005 µM) of the same molecule?
**A.** Its relative viability is 1.05.

**Q.** And the relative viability (NCI-H441; first compound 0.01581 µM)?
**A.** Its relative viability is 0.935.

**Q.** And the relative viability (NCI-H441; first compound 0.05 µM)?
**A.** Its relative viability is 1.28.

**Q.** What about the relative viability (NCI-H441; first compound 0.1581 µM) of the same molecule?
**A.** Its relative viability is 1.35.

**Q.** And the relative viability (NCI-H441; first compound 0.5 µM)?
**A.** Its relative viability is 1.08.

**Q.** What about the relative viability (NCI-H3122; first compound 0.005 µM) of the same molecule?
**A.** Its relative viability is 0.97.

**Q.** What about the relative viability (NCI-H3122; first compound 0.01581 µM) of the same molecule?
**A.** Its relative viability is 0.876.

**Q.** And the relative viability (NCI-H3122; first compound 0.05 µM)?
**A.** Its relative viability is 0.974.

**Q.** What about the relative viability (NCI-H3122; first compound 0.1581 µM) of the same molecule?
**A.** The relative viability was 1.02.

**Q.** What about the relative viability (NCI-H3122; first compound 0.5 µM) of the same molecule?
**A.** The relative viability was 1.02.

**Q.** What about the relative viability (NCI-H522; first compound 0.005 µM) of the same molecule?
**A.** The relative viability was 0.903.

**Q.** And the relative viability (NCI-H522; first compound 0.01581 µM)?
**A.** Its relative viability is 0.793.

**Q.** What about the relative viability (NCI-H522; first compound 0.05 µM) of the same molecule?
**A.** Its relative viability is 0.784.

**Q.** What about the relative viability (NCI-H522; first compound 0.1581 µM) of the same molecule?
**A.** Its relative viability is 0.811.

**Q.** What about the relative viability (NCI-H522; first compound 0.5 µM) of the same molecule?
**A.** Its relative viability is 0.857.

**Q.** And the relative viability (RERF-LC-KJ; first compound 0.005 µM)?
**A.** Its relative viability is 0.701.

**Q.** What about the relative viability (RERF-LC-KJ; first compound 0.01581 µM) of the same molecule?
**A.** Its relative viability is 0.925.

**Q.** What about the relative viability (RERF-LC-KJ; first compound 0.05 µM) of the same molecule?
**A.** The relative viability was 1.07.

**Q.** What about the relative viability (RERF-LC-KJ; first compound 0.1581 µM) of the same molecule?
**A.** Its relative viability is 0.659.

**Q.** What about the relative viability (RERF-LC-KJ; first compound 0.5 µM) of the same molecule?
**A.** The relative viability was 0.892.

**Q.** What about the relative viability (NCI-H460; first compound 0.005 µM) of the same molecule?
**A.** The relative viability was 0.533.

**Q.** And the relative viability (NCI-H460; first compound 0.01581 µM)?
**A.** The relative viability was 0.689.

**Q.** And the relative viability (NCI-H460; first compound 0.05 µM)?
**A.** The relative viability was 0.651.

**Q.** And the relative viability (NCI-H460; first compound 0.1581 µM)?
**A.** The relative viability was 0.566.

**Q.** What about the relative viability (NCI-H460; first compound 0.5 µM) of the same molecule?
**A.** The relative viability was 0.471.

**Q.** And the relative viability (NCI-H1651; first compound 0.005 µM)?
**A.** The relative viability was 0.381.

**Q.** What about the relative viability (NCI-H1651; first compound 0.01581 µM) of the same molecule?
**A.** The relative viability was 0.429.

**Q.** What about the relative viability (NCI-H1651; first compound 0.05 µM) of the same molecule?
**A.** The relative viability was 0.551.

**Q.** And the relative viability (NCI-H1651; first compound 0.1581 µM)?
**A.** The relative viability was 0.301.

**Q.** What about the relative viability (NCI-H1651; first compound 0.5 µM) of the same molecule?
**A.** Its relative viability is 0.421.

**Q.** What about the relative viability (LCLC-103H; first compound 0.005 µM) of the same molecule?
**A.** Its relative viability is 0.758.

**Q.** What about the relative viability (LCLC-103H; first compound 0.01581 µM) of the same molecule?
**A.** The relative viability was 0.829.

**Q.** And the relative viability (LCLC-103H; first compound 0.05 µM)?
**A.** The relative viability was 0.812.

**Q.** And the relative viability (LCLC-103H; first compound 0.1581 µM)?
**A.** Its relative viability is 0.689.

**Q.** What about the relative viability (LCLC-103H; first compound 0.5 µM) of the same molecule?
**A.** Its relative viability is 0.802.

**Q.** And the relative viability (NCI-H1915; first compound 0.005 µM)?
**A.** The relative viability was 0.728.

**Q.** What about the relative viability (NCI-H1915; first compound 0.01581 µM) of the same molecule?
**A.** The relative viability was 0.687.

**Q.** And the relative viability (NCI-H1915; first compound 0.05 µM)?
**A.** The relative viability was 0.711.

**Q.** And the relative viability (NCI-H1915; first compound 0.1581 µM)?
**A.** Its relative viability is 0.717.

**Q.** And the relative viability (NCI-H1915; first compound 0.5 µM)?
**A.** Its relative viability is 0.618.

**Q.** And the relative viability (NCI-H727; first compound 0.005 µM)?
**A.** Its relative viability is 0.548.

**Q.** What about the relative viability (NCI-H727; first compound 0.01581 µM) of the same molecule?
**A.** The relative viability was 0.657.

**Q.** And the relative viability (NCI-H727; first compound 0.05 µM)?
**A.** Its relative viability is 0.408.

**Q.** What about the relative viability (NCI-H727; first compound 0.1581 µM) of the same molecule?
**A.** Its relative viability is 0.442.

**Q.** What about the relative viability (NCI-H727; first compound 0.5 µM) of the same molecule?
**A.** The relative viability was 0.697.

**Q.** And the relative viability (NCI-H596; first compound 0.005 µM)?
**A.** Its relative viability is 1.03.

**Q.** And the relative viability (NCI-H596; first compound 0.01581 µM)?
**A.** The relative viability was 1.1.

**Q.** And the relative viability (NCI-H596; first compound 0.05 µM)?
**A.** The relative viability was 1.44.

**Q.** And the relative viability (NCI-H596; first compound 0.5 µM)?
**A.** Its relative viability is 1.06.

**Q.** What about the relative viability (NCI-H2347; first compound 0.005 µM) of the same molecule?
**A.** The relative viability was 0.73.

**Q.** What about the relative viability (NCI-H2347; first compound 0.01581 µM) of the same molecule?
**A.** The relative viability was 0.836.

**Q.** And the relative viability (NCI-H2347; first compound 0.05 µM)?
**A.** The relative viability was 0.92.

**Q.** What about the relative viability (NCI-H2347; first compound 0.1581 µM) of the same molecule?
**A.** The relative viability was 0.685.

**Q.** And the relative viability (NCI-H2347; first compound 0.5 µM)?
**A.** Its relative viability is 0.709.

Source: the supplement of paper PMC10307832
